Test results from US11203577B2, “Sulfonyl-structure-containing triazinone derivatives, their preparation methods and their uses in insect killing and/or bacterium killing” (Nankai University, priority 2017, dated 2021).
Where two headings read alike, the source gives them in different places.

What was measured:
Cucumber fusarium wilt = experiment: In vitro fungicidal activity, PDA colony diameter; type: cell-based; conditions: 96 h, 50 mg/kg, inhibition of colony diameter, read-out: Fungicidal activity (%) Cucumber fusarium wilt
[1] = system: Cercospora brown spot of peanut; experiment: In vitro fungicidal activity, PDA colony diameter; type: cell-based; conditions: 96 h, 50 mg/kg, inhibition of colony diameter, read-out: Fungicidal activity (%) Cercospora brown spot of peanut
Tomato early blight = experiment: In vitro fungicidal activity, PDA colony diameter; type: cell-based, Alternaria solani; conditions: 50 mg/kg, inhibition of colony diameter; read-out: Fungicidal activity (%) Tomato early blight
Wheat head blight = experiment: whole plant or invertebrate; type: cell-based; conditions: Triticum aestivum, read-out: Fungicidal activity (%) Wheat head blight
Rice bakanae disease = experiment: In vitro fungicidal activity, PDA colony diameter; type: cell-based; conditions: 50 mg/kg, inhibition of colony diameter; read-out: Fungicidal activity (%) Rice bakanae disease
Sclerotinia rot of colza = experiment: In vitro fungicidal activity, PDA colony diameter; type: cell-based; conditions: 96 h, 50 mg/kg, inhibition of colony diameter, read-out: Fungicidal activity (%) Sclerotinia rot of colza
Apple ring rot = experiment: In vitro fungicidal activity, PDA colony diameter; type: cell-based; conditions: inhibition of colony diameter
Method in brief: (§1)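 Mycelial plugs cut from the edge of 7-day PDA colonies placed on PDA containing 50 mg/kg compound or on compound-free PDA, grown 4 days. Colony diameters measured; percent inhibition calculated against untreated control.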

[2] = system: Capsicum phytophthora blight; experiment: In vitro fungicidal activity, PDA colony diameter; type: cell-based; conditions: 96 h
Method in brief: as §1

Wheat sheath blight = experiment: In vitro fungicidal activity, PDA colony diameter; type: cell-based; conditions: 50 mg/kg, inhibition of colony diameter; read-out: Fungicidal activity (%) Wheat sheath blight
[3] = system: Corn southern leaf blight; experiment: In vitro fungicidal activity, PDA colony diameter; type: cell-based; conditions: 50 mg/kg, inhibition of colony diameter; read-out: Fungicidal activity (%) Corn southern leaf blight
Watermelon anthracnose = experiment: In vitro fungicidal activity, PDA colony diameter; type: cell-based; conditions: 50 mg/kg, inhibition of colony diameter; read-out: Fungicidal activity (%) Watermelon anthracnose
Potato late blight = experiment: microbe, parasite or virus in culture; type: cell-based; conditions: Phytophthora infestans, 96 h, read-out: Fungicidal activity (%) Potato late blight
Rice sheath blight = experiment: In vitro fungicidal activity, PDA colony diameter; type: cell-based; conditions: read-out: Fungicidal activity (%) Rice sheath blight
Armyworms = experiment: Test of insecticidal activity against armyworms (leaf immersion); conditions: 600 mg/kg, 3-4 days
Maize borers = experiment: Test of insecticidal activity against maize borers (leaf immersion); conditions: read-out: Mortalities (%) Maize borers
[4] = system: mosquito larvae (Culer pipiens pallens); experiment: Test of insecticidal activity against mosquito larvae (checked after 24 h)
[5] = system: bean aphides (Aphis laburni Kaltenbach); experiment: Test of insecticidal activity against aphides (leaf immersion, checked after 96 h)
Cotton bollworms = experiment: Test of insecticidal activity against cotton bollworms (pesticide mixed into feedstuff); conditions: read-out: Mortalities (%) Cotton bollworms
Experimental: Method of testing against cotton bollworms: the pesticide is mixed into the feedstuff, i.e., 3 mL prepared solution is added into about 27 g freshly prepared feedstuff; thus, required concentration is obtained by diluting by 10 times.

[6] = 50 mg/kg, inhibition of colony diameter
[7] = 24 h, read-out: Mortalities (%) against mosquito larvae
[8] = Aphis, 96 h, read-out: Mortalities (%) against aphides

## CC1=NNC(=O)N(NS(=O)(=O)C2CC2)C1 [Ia-5, N-(6-methyl-3-oxo-2,3-dihydro-1,2,4-triazin-4(5H)-yl)-cyclopropylsulfonamide]
Cucumber fusarium wilt
  inhibition of growth at 50 mg/kg: 8.8%
[1]
  inhibition of growth at 50 mg/kg: 8%
Tomato early blight
  inhibition at 50 mg/kg: 14.9%
Wheat head blight
  inhibition at 50 mg/kg: 10.8%
Rice bakanae disease
  inhibition at 50 mg/kg: 20.7%
Sclerotinia rot of colza
  inhibition of growth at 50 mg/kg: 21%
Apple ring rot
  inhibition at 50 mg/kg: 10.8%
[2]
  inhibition of growth at 50 mg/kg: 5.6%
Wheat sheath blight
  inhibition at 50 mg/kg: 8.7%
[3]
  inhibition at 50 mg/kg: 18.7%
Watermelon anthracnose
  inhibition at 50 mg/kg: 16.4%
Potato late blight
  inhibition of growth at 50 mg/kg: 64.5%
Rice sheath blight; [6]
  inhibition at 50 mg/kg: 19.8%
Armyworms
  Mortalities (%) Armyworms: 10%
Maize borers
  mortality at 600 mg/kg: 10%
[4]; [7]
  mortality at 10 mg/kg: 10%
[5]; [8]
  mortality at 10 mg/kg: 30%
  mortality at 100 mg/kg: 85%
  mortality at 600 mg/kg: 100%
Cotton bollworms
  mortality at 600 mg/kg: 15%

## CC1=NNC(=O)N(NS(=O)(=O)c2c(C)noc2C)C1 [Ia-30, 3,5-dimethyl-N-(6-methyl-3-oxo-2,3-dihydro-1,2,4-triazin-4(5H)-yl)-isoxazolyl-4-sulfonamide]
Cucumber fusarium wilt
  inhibition of growth at 50 mg/kg: 23.1%
[1]
  inhibition of growth at 50 mg/kg: 19.2%
Tomato early blight
  inhibition at 50 mg/kg: 20%
Wheat head blight
  inhibition at 50 mg/kg: 12.1%
Rice bakanae disease
  inhibition at 50 mg/kg: 14.8%
Sclerotinia rot of colza
  inhibition of growth at 50 mg/kg: 12.5%
Apple ring rot
  inhibition at 50 mg/kg: 23.8%
[2]
  inhibition of growth at 50 mg/kg: 11.5%
Wheat sheath blight
  inhibition at 50 mg/kg: 7.5%
[3]
  inhibition at 50 mg/kg: 19.4%
Watermelon anthracnose
  inhibition at 50 mg/kg: 25%
Potato late blight
  inhibition of growth at 50 mg/kg: 14.3%
Rice sheath blight
  inhibition at 50 mg/kg: 14.3%
Armyworms
  Mortalities (%) Armyworms: 20%
Maize borers
  mortality at 600 mg/kg: 15%
[4]; [7]
  mortality at 10 mg/kg: 35%
[5]; [8]
  mortality at 100 mg/kg: 45%
  mortality at 600 mg/kg: 95%
Cotton bollworms
  mortality at 600 mg/kg: 25%

## CC1=NNC(=O)N(NS(=O)(=O)c2ccc(C(F)(F)F)cc2)C1 [Ia-26, N-(6-methyl-3-oxo-2,3-dihydro-1,2,4-triazin-4(5H)-yl)-4-(trifluoromethyl)-benzenesulfonamide]
Cucumber fusarium wilt
  inhibition of growth at 50 mg/kg: 2.9%
[1]
  inhibition of growth at 50 mg/kg: 12%
Tomato early blight
  inhibition at 50 mg/kg: 13.4%
Wheat head blight
  inhibition at 50 mg/kg: 13.5%
Rice bakanae disease
  inhibition at 50 mg/kg: 17.2%
Sclerotinia rot of colza
  inhibition of growth at 50 mg/kg: 15.8%
Apple ring rot
  inhibition at 50 mg/kg: 23%
[2]
  inhibition of growth at 50 mg/kg: 27.8%
Wheat sheath blight
  inhibition at 50 mg/kg: 0%
[3]
  inhibition at 50 mg/kg: 6.3%
Watermelon anthracnose
  inhibition at 50 mg/kg: 34.4%
Potato late blight
  inhibition of growth at 50 mg/kg: 34.3%
Rice sheath blight; [6]
  inhibition at 50 mg/kg: 20.9%
Armyworms
  Mortalities (%) Armyworms: 45%
Maize borers
  mortality at 600 mg/kg: 40%
[4]; [7]
  mortality at 1 mg/kg: 20%
  mortality at 2 mg/kg: 100%
  mortality at 5 mg/kg: 100%
  mortality at 10 mg/kg: 100%
[4]; in vivo
  insecticidal activity against mosquito larvae: relatively high insecticidal activity
[5]; 5 mg/kg
  insecticidal activity against aphides compared with pymetrozine: equivalent to the insecticidal activity of pymetrozine
[5]; [8]
  mortality at 5 mg/kg: 30%
  mortality at 10 mg/kg: 100%
  mortality at 100 mg/kg: 100%
  mortality at 600 mg/kg: 100%
Cotton bollworms
  mortality at 600 mg/kg: 0%

## CC1=NNC(=O)N(NS(=O)(=O)c2ccsc2)C1 [Ia-29, N-(6-methyl-3-oxo-2,3-dihydro-1,2,4-triazin-4(5H)-yl)-thienyl-3-sulfonamide]
Cucumber fusarium wilt
  inhibition of growth at 50 mg/kg: 12.8%
[1]
  inhibition of growth at 50 mg/kg: 19.2%
Tomato early blight
  inhibition at 50 mg/kg: 25%
Wheat head blight
  inhibition at 50 mg/kg: 21.2%
Rice bakanae disease
  inhibition at 50 mg/kg: 3.7%
Sclerotinia rot of colza
  inhibition of growth at 50 mg/kg: 12.5%
Apple ring rot
  inhibition at 50 mg/kg: 52.4%
[2]
  inhibition of growth at 50 mg/kg: 23.1%
Wheat sheath blight
  inhibition at 50 mg/kg: 20.8%
[3]
  inhibition at 50 mg/kg: 13.9%
Watermelon anthracnose
  inhibition at 50 mg/kg: 18.8%
Potato late blight
  inhibition of growth at 50 mg/kg: 23.8%
Rice sheath blight; [6]
  inhibition at 50 mg/kg: 35.7%
Armyworms
  Mortalities (%) Armyworms: 10%
Maize borers
  mortality at 600 mg/kg: 15%
[4]; [7]
  mortality at 10 mg/kg: 35%
[5]; [8]
  mortality at 10 mg/kg: 30%
  mortality at 100 mg/kg: 85%
  mortality at 600 mg/kg: 95%
Cotton bollworms
  mortality at 600 mg/kg: 20%
